Like-named read-outs stand apart in the source and are kept apart here.
Tests used:
S. mansoni schistosomula = assay: 72 hours schistosomula drug screen; type: cell-based, Schistosoma mansoni; conditions: for Selectivity Index Schistosomula: HepG2 CC50 over schistosomula EC50; for EC50: Schistosoma mansoni, schistosomula, 72 hour culture
Description: Biological Screening 72 Hours Schistosomula Drug Screen […] G. Colley, […], Schistosoma mansoni: simplified method for the production of schistosomules., Exp. Parasitol. 35 (1974) 44-51. Newly transformed schistosomula were prepared for 72 hour high throughput screening (HTS) in 384-well black-sided microtiter plates (Perkin Elmer, MA, USA) as described in M. Nur-e-alam, M. Yousaf, […]. Bari, H. A. Ghabbour, […]. Ho, A. J. […], Neoclerodane Diterpenoids from […], Teucrium […]. Nat. […] The data obtained in this manner is shown in Table 1 in the columns labelled “Phenotype”, “Motility” and “Schistosomula average”.

S. mansoni adult worms = assay: Adult worm drug screen (WHO scoring, WormassayGP2); type: cell-based, Schistosoma mansoni; conditions: for Selectivity Index Adult: HepG2 CC50 over adult worm EC50; for EC50: Schistosoma mansoni, adult worms
Source text: Mice (MF-1 mice, Harlan, UK), infected 7 weeks previously with 180 cercaria, were euthanised with an intraperitoneal injection of phenobarbital/heparin solution. Adult worms were recovered by perfusion of the portal system and subjected to drug screening as previously described in Padalino G, Ferla S, Brancale A, Chalmers I W, Hoffmann K F. Int J Parasitol Drugs Drug Resist. 2018 December; 8(3):559-570; in Whiteland H L, Chakroborty A, Forde-Thomas J E, Crusco A, Cookson A, Hollinshead J, Fenn C A, Bartholomew B, Holdsworth P A, Fisher M, Nash R J, Hoffmann K F. Int J Parasitol Drugs Drug Resist. 2018 December; 8(3):465-474; and in Crusco A, Bordoni C, Chakroborty A, Whatley K C L, Whiteland H, Westwell A D, Hoffmann K F. Eur J Med Chem. 2018 May 25; 152:87-100. The data obtained in this manner is shown in Table 1 in the columns labelled “Adult worm”.
Regarding the quantification of drug treatment on adult worms (e.g. decreased activity, paralysis or sluggishness), two different approaches were used, as described below. Where egg deposition was noticed, eggs were removed and counted using a Sedgewick rafter slide.
Adult worms were scored using the standardized microscopic WHO-TDR scoring system previously described by Ramirez, B., Bickle, Q., Yousif, F., Fakorede, F., Mouries, M.-A., Nwaka, S. in Schistosomes: Challenges in compound screening, Expert Opin Drug Discov. 2007 October; 2(s1): S53-61. This scoring system (0-4) identifies changes in worm movement and is defined according to the following scoring matrix: 0=no movement, 1=no movement with visible gut peristalsis, 2=minimal movement (occasional movement from anterior or posterior end of the worm), 3=slow continuous movement and 4=normal movement.
A digital image processing-based system was also used to assess parasite motility after drug treatment and is a modification of methods previously described by Marcellino C., Gut, J., Lim, K., Singh R., McKerrow, L. and Sakanari, J. WormAssay: a novel computer application for whole-plate motion-based screening of macroscopic parasites. PLoS Negl Trop Dis. 2012 January:6(1):e1494. This allowed for objective verification of the WHO method described above. The data obtained with this quantification method is shown in Table 1 in the columns labelled “Adult worm”.

MTT assay on HepG2 cells = type: cell-based; conditions: human
Description: MTT Assay on HepG2 Cells Human Hepatocyte Carcinoma (HepG2) cells (85011430, Sigma Aldrich) were used to assess the overt toxicity of these anti-infective compounds. […] A negative control (1% v/v Triton X-100; X100, Sigma-Aldrich) was also included in each screen. After addition of compounds, each plate was then incubated for a further 20 hrs before application of MTT reagent (prepared as described in Nur-[…], Bari A, Ghabbour […], Hoffmann […] Nat Prod. 2017 Jun. 23; 80(6):1900-1908 for the assessment of compound cytotoxicity using the MTT assay. […] The plate was then further incubated for 4 hrs. After incubation, each plate was blotted dry under the laminar flow to remove the MTT treated culture media. A 100 μl DMSO: isopropanol (1:1) solution was then added to each well and the plate was then subsequently incubated for 10 minutes at 37° C. Following incubation, each plate was shaken again and then absorbance measured at 570 nm. The absorbance reading was corrected based on the average value of the wells used as blank (no cells). […] The data obtained in this manner is shown in Table 1 in the columns labelled “HepG2”. […] The selectivity indexes for schistosomula and adult worms are shown in the final two columns in Table 1.

H3K4 methylation = assay: Histone extraction and detection of global H3K4 methylation in treated adult worms; type: cell-based, Schistosoma mansoni; conditions: sub-lethal concentration 0.0024 μM, male and female adult worms

| Structure (SMILES) | Selectivity Index Schistosomula (S. mansoni schistosomula) | EC50 (S. mansoni schistosomula; read-out: EC50 Motility) | EC50 (S. mansoni schistosomula; read-out: EC50 Phenotype) | Selectivity Index Adult (S. mansoni adult worms) | EC50 (S. mansoni adult worms) | CC50 at 24 h (MTT assay on HepG2 cells) | global H3K4 methylation compared to the negative control (DMSO) (H3K4 methylation) |
| --- | --- | --- | --- | --- | --- | --- | --- |
| O=[N+]([O-])c1ccc2nc(Nc3ccc(F)cc3)c(Nc3ccc(F)cc3)nc2c1 [Compound 6, N^2, N^3-bis(4-fluorophenyl)-6-nitroquinoxaline-2,3-diamine] | 12 | 1400 nM | 2140 nM | 121 | 180 nM | 22 µM |  |
| O=[N+]([O-])c1ccc2nc(Nc3cc(F)cc(C(F)(F)F)c3)c(Nc3cc(F)cc(C(F)(F)F)c3)nc2c1 [Compound 8, N^2, N^3-bis(3-fluoro-5-(trifluoromethyl)phenyl)-6-nitroquinoxaline-2,3-diamine] | 25 | 430 nM | 370 nM | 1549 | 6.5 nM |  | significant % decrease |

Source: patent publication US12503448B2, “Antibacterial and antiparasitic quinoxaline-2,3-diamine derivatives” (University College Cardiff Consultants Limited, priority 2019, dated 2025)
